Converted amounts (≈) assume the structure as drawn.
What was measured:
[1] = Equilibrium Solubility (pH 2-7); format: physicochemical; settings: for solubility thermodynamic: aqueous buffer, thermodynamic from solid
[2] = Blood Brain Barrier Penetration (brain to plasma ratio); format: in vivo; settings: male, Swiss Outbred, mouse, brain and plasma; for Kp at 5 min / Kp at 1 h: 150 μg/mouse, IV, read-out: Brain to Plasma Ratio (IV) (B:P); for Kp at 1 h: at 60 min; for Kp at 0.5 h / Kp at 4 h: Oral dosing, read-out: Brain to Plasma Ratio (B:P); for Kp at 0.5 h: at 30 min; for Kp at 4 h: at 240 min
Description: [formula] [formula] [formula] • CLtotal=total plasma clearance after IV administration • Vdβ=volume of distribution during the elimination phase after IV administration • BA=oral bioavailability • AUCIV=area under the plasma concentration versus time profile from time zero to infinity after IV administration • AUCoral=area under the plasma concentration versus time profile from time zero to infinity after oral administration • β=terminal elimination rate constant after IV administration Assay 6. Blood Brain Barrier Penetration
A bolus injection of each of the test compound (50 μL of a 3 mg/mL aqueous solution containing 40% propylene glycol and 10% ethanol) was administered by tail vein injection to male Swiss Outbred mice (5-7 weeks of age). Alternatively, test compound was orally administered to mice according to standard procedures known to the skilled person.
[…] Mice were anaesthetised approximately 3-4 min prior to blood and brain harvest with an intraperitoneal injection of ketamine and xylazine (133 mg/kg and 10 mg/kg, respectively). The whole brain was placed into pre-weighed polypropylene vials and stored at −20° C. until analysis. On the day of analysis, the whole brain was homogenised in 3 parts of water (on ice to reduce the potential for ex vivo brain degradation) and an aliquot of the brain homogenate and plasma was analysed for compound concentration by LCMS. Standards were prepared by spiking blank brain homogenate and both samples and standards were processed by adding acetonitrile to the tissue homogenate, centrifuging and injecting an aliquot of the supernatant onto the LCMS.
To ensure complete recovery of compound from the brain, brain homogenate was spiked with compound (in 50% acetonitrile:50% water) to a nominal concentration of 500 ng/mL. The concentration of compound in the supernatant was then determined by LCMS and compared to the supernatant concentration when compound was added following precipitation with acetonitrile.
[formula] [formula] [formula] [formula] • Cbrain=concentration of compound in brain parenchyma (ng/g) • Cbrain homogenate=concentration of compound in brain homogenate (ng/g) • Cbrain vasculature=concentration of compound in brain vasculature (ng/g) • CPlasma=concentration of compound in plasma (ng/mL) • VP=brain plasma volume (26 μL/g for male Swiss Outbred mice) • B:P=brain-to-plasma ratio • Papp=apparent permeability coefficient of compound permeating the blood-brain barrier • ∫0^tcplasmadt=concentration of compound in plasma from time zero to 5 min post-dose (equivalent to the 5 min post-dose plasma concentration, assuming no back diffusion from brain to plasma within this time period) • A=surface area of capillaries forming the blood-brain barrier (240 cm^2/g brain weight for mouse) Assay 7 In Vitro Metabolism in Human Liver Microsomes

[3] = Mouse Plasma Conc.; format: in vivo; settings: given as 'Up to'
[4] = Metabolism in hepatocytes (predicted EH), rat; format: in vitro ADME
[5] = system: 6-OHDA lesion of the SNpc; experiment: Parkinson's disease in vivo: 6-OHDA model; set-up: species or system mouse; settings: 6-OHDA lesioned mice
Procedure: Parkinson's Disease In Vivo Technique: 6-OHDA Model
Preparation of the toxin 6-OHDA (1.65 mg/mL, Sigma Cat# H-4381):
6-OHDA toxin is dissolved in ascorbic acid solution (0.2 mg/mL in dH2O), store in dark on ice. To increase the speed of anaesthesia and reduce stress to the mouse, there is premedication with atropine (0.5 mg/kg) and xylazine (10 mg/kg) is injected subcutaneously via a 27 gauge needle).
To Prepare the Lesion Needle to Inject 6-OHDA:
PBS is sucked up into the line (ensure no air bubbles) with up to […] in a Hamilton syringe. Syringe is placed the in the Kd Scientific syringe pump and secured. Pump is turned the on and syringe is loaded into the pump. Pump volume is set at […] and the rate is set at 0.5 ml/min. The lesion needle is positioned so that the bevelled (eye) of the needle is at a 45° angle from the midline and tightened to secure the needle. Pump is run and checked for fluid coming out.
3-4% isoflurane is carried by oxygen to induce anaesthesia and 1-2% for maintenance of anaesthesia. Animal is placed in small induction chamber and subjected to a few minutes of 4% isoflurane in oxygen at a flow rate of approx 1 l/min. Mouse is then placed in stereotaxic frame. The anaesthetic tube is disconnected from induction box and isoflurane reduced to 2% conc and oxygen flow rate to approx […]. Tube is connected to the nose piece attached to stereotaxic frame so that anaesthetic gas can be constantly administered during surgery. LHS ear bar is screwed at approx 3 mm. RHS ear bar is screwed in until there is no sideways head movement (about 5 mm). Front incisors are placed over the mouthguard and put nose-guard on (3 mm below 0). Mouthguard is screwed into place and ensured the top of the mouse's head is level (re-check this once the animal's skull is exposed).
Using a scalpel (size 4, blade 22), the scalp is cut down the centreline of the mouse's head to expose the skull. Typically 10-15 mm. The surface of the skull is dried with a cotton bud. Drill hole is measured with a ruler 3 mm posterior from Bregma and between 1 and 1.5 mm laterally from the centre line. The skull is drilled into this position until the surface of the brain is exposed.
6-OHDA is sucked up to fill approximately 15 cm of the line and the syringe. Fluid is ensured to be coming out of needle. The bevelled of the needle is aligned over the centreline where Bregma crosses, viewed by Motik dissecting microscope. The needle is ensured to be a few mm above the skull before positioning. Frame is moved 2.9 mm in a posterior direction and 1.1 mm (11 small notches) laterally to the right (for RHS injections) from the starting coordinates at Bregma. Needle is moved down until the tip of the needle just touches the surface of the brain.
Needle is lowered to the required depth of 4.6 mm and brain is allowed to settle for 2 min.
[…] of toxin is injected into the RHS SNpc, taking 4 min. 2 min is allowed to ensure the toxin disperses. Needle is withdrawn and antiseptic applied to the wound, with suture or superglue to close.
Mouse is wrapped in a piece of tissue and placed in a warm recovery box (on a heat pad) with water bottles (50 ml tubes) warmed to 50 C. Panadol® syrup is added to mouse's water bottle.
Rotation is recorded by the Computer based Rotacount system—(Columbus Instruments, Columbus, Ohio, USA). The system comprised of 8 bowls with sensors connected to a computer which measures incremental turns (90 degrees and full turns 360 degrees) either clockwise or counter clockwise. The sensors are positioned above the centre of each bowl about 30 cm above each. Tubing and a thin empty plastic pipette are attached so that the sensor is now extended to with a few cm of the base of the bowl.
Mice are placed individually into the eight bowls. Mice are secured to the pipettes via a cable tie and tape. […]

Row | SMILES | pH dependence of equilibrium solubility [1] | solubility thermodynamic [1] [mg/mL] | Kp at 5 min [2] | Kp at 1 h [2] | Mouse Plasma Conc. [3] [ng/mL] | Metabolism (Predicted EH), Hepatocytes: Rat [4] | Kp at 0.5 h [2] | Kp at 4 h [2] | Behaviour (Rotation) % SSV ([5]; SSV = 0%, dose not given) [%] | Behaviour (Rotation) total turns/h ± SD ([5]; dose not given) | SN cell counts % of SSV (SSV = 0%) ([5]; dose not given) [%] | SN cell counts (cells ± SD) ([5]; dose not given) | other results
1 | CCn1c(CN(C)C)nc2c(O)c(Cl)cc(Cl)c2c1=O.Cl [Compound F4268] | not pH dependent | 3.81 to 10.2 | 2.96 | 2.63 | ≤ 975.9 | Rat = 0.30 |  |  | 56.04 | (114.56 ± 71.86) turns/h | 93.96 | (3725.04 ± 842.65) cells | 
2 | CCNCc1nc2c(O)c(Cl)cc(Cl)c2c(=O)n1CC [Compound F4495] | not pH dependent | 2.23 to 4.73 (≈ 7.04 to 14.9 mM) |  |  | ≤ 8935 | Rat = 0.35 | 0.65 | 0.64 | 18.06 | (212.29 ± 101.41) turns/h | 57.22 | (3019.56 ± 318.79) cells | 
3 | CNCc1nc2c(O)c(Cl)cc(Cl)c2c(=O)n1C [Compound F4161] | pH dependent | 0.196 to 0.746 (≈ 0.68 to 2.59 mM) |  |  | ≤ 510.4 | Rat = 0.29 |  |  |  |  |  |  | 
4 | Br.CCn1c(CNC)nc2c(O)c(Cl)cc(Cl)c2c1=O [Compound F4486] |  |  |  |  | ≤ 1115 |  | 0.23 | 0.22 |  |  |  |  | 
5 | CCN(CC)Cc1nc2c(O)c(Cl)cc(Cl)c2c(=O)n1CC1CC1 [Compound F4385] | pH dependent | 0.683 to 1.66 (≈ 1.84 to 4.49 mM) |  |  | ≤ 9074 | Rat = 0.35 | 0.31 | 0.42 | 49.98 | (129.57 ± 16.26) turns/h | 56.81 | (3011.56 ± 502.27) cells | 
6 | C#CCN(C)Cc1nc2c(O)c(Cl)cc(Cl)c2c(=O)n1CC1CC1 [Compound F4387] |  |  | 0.65 | 0.29 | ≤ 942.7 |  |  |  | 24.51 | (195.57 ± 114.48) turns/h | 46.90 | (2821.24 ± 940.22) cells | 

Second part, led by results:

Row | pH dependence of equilibrium solubility [1] | solubility thermodynamic [1] [mg/mL] | Kp at 5 min [2] | Kp at 1 h [2] | Mouse Plasma Conc. [3] [ng/mL] | Metabolism (Predicted EH), Hepatocytes: Rat [4] | Kp at 0.5 h [2] | Kp at 4 h [2] | SMILES | Behaviour (Rotation) % SSV ([5]; SSV = 0%, dose not given) [%] | Behaviour (Rotation) total turns/h ± SD ([5]; dose not given) | SN cell counts % of SSV (SSV = 0%) ([5]; dose not given) [%] | SN cell counts (cells ± SD) ([5]; dose not given) | other results
7 | pH dependent | 0.393 to 1.71 (≈ 1.15 to 4.98 mM) | 3.46 | 2.02 | ≤ 1166.6 | Rat = 0.45 |  |  | CN(C)Cc1nc2c(O)c(Cl)cc(Cl)c2c(=O)n1CC1CC1 [Compound F4267] |  |  |  |  | Behaviour (Rotation) % SSV ([5]; 5 mg kg): 7.01%; Behaviour (Rotation) total turns/h ± SD ([5]; 5 mg kg): (240.89 ± 171.99) turns/h; SN cell counts % of SSV (SSV = 0%) ([5]; 5 mg kg): 55.79%; SN cell counts (cells ± SD) ([5]; 5 mg kg): (2992.00 ± 883.84) cells; Behaviour (Rotation) % SSV ([5]; 15 mg kg): −23.39%; Behaviour (Rotation) total turns/h ± SD ([5]; 15 mg kg): (319.67 ± 171.05) turns/h; SN cell counts % of SSV (SSV = 0%) ([5]; 15 mg kg): 77.86%; SN cell counts (cells ± SD) ([5]; 15 mg kg): (3415.96 ± 498.05) cells; Behaviour (Rotation) % SSV ([5]; 30 mg kg): 36.33%; Behaviour (Rotation) total turns/h ± SD ([5]; 30 mg kg): (164.93 ± 110.90) turns/h; SN cell counts % of SSV (SSV = 0%) ([5]; 30 mg kg): 110.44%; SN cell counts (cells ± SD) ([5]; 30 mg kg): (4041.70 ± 799.55) cells
8 | pH dependent | 0.166 to 2.67 (≈ 0.549 to 8.84 mM) | 2.96 | 2.12 | ≤ 492.1 | Rat = 0.35 |  |  | CN(C)Cc1nc2c(O)c(Cl)cc(Cl)c2c(=O)n1C [Compound F4269, 5,7-Dichloro-2-(dimethylamino)methyl-8-hydroxy-3-methylquinazolin-4(3H)-one] | 48.85 | (132.50 ± 81.93) turns/h | 68.91 | (3243.93 ± 724.98) cells | 
9 | not pH dependent | 0.224 to 1.5 |  |  | ≤ 3330.8 | Rat = 0.35 | 1.42 | 1.97 | Br.CCNCc1nc2c(O)c(Cl)cc(Cl)c2c(=O)n1C [Compound F4496] | 36.62 | (164.20 ± 100.40) turns/h | 95.68 | (3758.11 ± 510.98) cells | 

— patent US9145375B2, “Quinazolinone compounds” (PRANA BIOTECHNOLOGY LIMITED, priority 2008, dated 2015)
